Publication PMC6413231, “o-Vanillin Derived Schiff Bases and Their Organotin(IV) Compounds: Synthesis, Structural Characterisation, In-Silico Studies and Cytotoxicity” (International Journal of Molecular Sciences, 2019)
Like-named read-outs stand apart in the source and are kept apart here.

Legend:
H460 (lung) cancer cells = assay: MTT growth inhibition assay, H460; format: cell-based; conditions: ± standard error, read-out: Growth Inhibition Concentration, GI50
Experimental: (§1) The Schiff bases and their organotin(IV) compounds were screened for in vitro cytotoxicity against a panel of 12 cancer cell lines: EJ-28 (muscle invasive bladder), RT-112 (minimum-invasive bladder), HT29 (colon), U87 and SJ-G2 (glioblastoma), MCF-7 (breast), A2780 (ovarian), H460 (lung), A431 (skin), DU145 (prostate), BE2-C (neuroblastoma), MIA (pancreatic) and one normal breast cell line (MCF-10A) using the MTT metabolic assay (Figure 6). After 72 h of incubation, a dose-dependent […] effect towards the cancer cell lines was measured at very low micromolar (µM) concentrations of the compounds. The growth inhibition concentration of the Schiff bases and their organotin(IV) compounds required to inhibit 50% cell proliferation relative to the cells that were treated with DMSO (control) are given in Table 2. The stability of these compounds was assessed in DMSO as well as in a mixture of DMSO-H2O. The absorbance obtained from UV-vis spectroscopy analysis was monitored for 72 h, and an unchanged pattern in the spectra was indicative that the compounds were stable in both the solvent systems tested.
(§2) For HT29 (colon), U87 and SJ-G2 (glioblastoma), MCF-7 (breast), A2780 (ovarian), H460 (lung), A431 (skin), Du145 (prostate), BE2-C (neuroblastoma), MIA (pancreas) cell lines and one normal breast cell line, MCF-10A (normal breast), the MTT assays were performed using the following method:
(§3) Stock solutions were prepared as follows and stored at −20 °C: Trial compounds were stored as 10 mM solutions in DMSO. All cell lines were cultured in a humidified atmosphere 5% CO2 at 37 °C. The cancer cell lines were maintained in Dulbecco’s modified Eagle’s medium (DMEM) (Trace Biosciences) supplemented with 10% foetal bovine serum, 10 mM sodium bicarbonate, penicillin (100 IU/mL), streptomycin (100 μg/mL) and glutamine (4 mM). The normal cell line, MCF-10A was cultured in DMEM:F12 (1:1) cell culture media, 5% heat inactivated horse serum, supplemented with penicillin (50 IU/mL), streptomycin (50 μg/mL), 20mM Hepes, L-glutamine (2 mM), epidermal growth factor (20 ng/mL), hydrocortisone (500 ng/mL), cholera toxin (100 ng/mL) and insulin (10 μg/mL).
(§4) Cells in logarithmic growth were transferred to 96-well plates. Cytotoxicity was determined by plating cells in duplicate in 100 μL medium at a density of 2500–4000 cells/well. On day 0 (24 h after plating), when the cells were in logarithmic growth, 100 μL medium, with or without the test agent, was added to each well. After 72 h drug exposure, growth inhibitory effects were evaluated using the MTT (3-[4,5-dimethylthiazol-2-yl]-2,5-diphenyltetrazolium bromide) assay and absorbance read at 540 nm. Percentage growth inhibition was determined at a fixed drug concentration of 25 μM. A value of 100% was indicative of complete cell growth inhibition. Those analogues showing appreciable percentage growth inhibition underwent further dose-response analysis allowing for the calculation of a GI50 value. This value is the drug concentration at which cell growth is 50% inhibited based on the difference between the optical density values on day 0 and those at the end of drug exposure.

[1] = system: U87 (glioblastoma) cancer cells; assay: MTT growth inhibition assay, U87; format: cell-based; conditions: 72 h, ± standard error, read-out: Growth Inhibition Concentration, GI50
Experimental: as §1, §2, §3, §4

A431 (skin) cancer cells = assay: MTT growth inhibition assay, A431; format: cell-based; conditions: ± standard error, read-out: Growth Inhibition Concentration, GI50
Experimental: as §1, §2, §3, §4

[2] = system: EJ-28 (muscle invasive bladder) cancer cells; assay: MTT cytotoxicity assay, EJ-28; format: cell-based, human; conditions: EJ-28 cells, 72 h, ± standard error, read-out: Growth Inhibition Concentration, GI50
Experimental: as §1
(§5) The inhibitory effect of the synthesised compounds on the growth of bladder (EJ-28 and RT-112) cancer cells was evaluated by MTT assay. […] RT-112 and EJ-28, human bladder cancer cell lines used in this study (ATCC, Manassas, VA, USA) were cultured in RPMI-1640 (High glucose) medium supplemented with 10% fetal bovine serum containing 1% penicillin. The cells were cultured at 37 °C in a humidified atmosphere of 5% CO2 in air. Cells were seeded in 96-well plates at 6000 cells per well for 24 h, then they were treated with different concentrations of compounds for 72 h. The medium was subsequently removed and the wells were washed with 200 µL of phosphate buffer saline. Aliquots of 20 µL of 3-(4,5-dimethylthiazol-2-yl)-2,5-diphenyltetrazolium bromide (MTT) was added to each well and incubated for 4 h at 37 °C. Aliquots of 200 µL of media was then removed from each well and 200 µL of DMSO was added. Optical density (OD) was measured using an ELISA plate reader at 570 nm. Control wells (100% viability), containing media and DMSO, were included in all the experiments. All data points represented an average of triplicate assays. Cytotoxicity was expressed as CD50, i.e., the concentration that reduced the absorbance of treated cells by 50% with reference to the control (untreated cells).

[3] = system: MCF-10A (normal breast) cell line; assay: MTT growth inhibition assay, MCF10A; format: cell-based; conditions: MCF10A normal breast cells, 72 h, ± standard error, read-out: Growth Inhibition Concentration, GI50
Experimental: as §1, §2, §3, §4

[4] = system: MIA (pancreatic) cancer cells; assay: MTT growth inhibition assay, MIA; format: cell-based; conditions: 72 h, ± standard error, read-out: Growth Inhibition Concentration, GI50
Experimental: as §1, §2, §3, §4

[5] = system: SJ-G2 (glioblastoma) cancer cells; assay: MTT growth inhibition assay, SJ-G2; format: cell-based; conditions: for GI50: MTT, 72 h, ± standard error, read-out: Growth Inhibition Concentration, GI50
Experimental: as §1, §2, §3, §4

[6] = system: HT29 (colon) cancer cells; assay: MTT growth inhibition assay, HT29; format: cell-based; conditions: ± standard error, read-out: Growth Inhibition Concentration, GI50
Experimental: as §1, §2, §3, §4

[7] = system: A2780 (ovarian) cancer cells; assay: MTT growth inhibition assay, A2780; format: cell-based; conditions: 72 h, ± standard error, read-out: Growth Inhibition Concentration, GI50
Experimental: as §1, §2, §3, §4

[8] = system: RT-112 (minimum-invasive bladder) cancer cells; assay: MTT cytotoxicity assay, RT-112; format: cell-based, human; conditions: RT-112 cells, 72 h, ± standard error, read-out: Growth Inhibition Concentration, GI50
Experimental: as §1, §5

[9] = system: Du145 (prostate) cancer cells; assay: MTT growth inhibition assay, Du145; format: cell-based; conditions: ± standard error, read-out: Growth Inhibition Concentration, GI50
Experimental: as §1, §2, §3, §4

[10] = system: MCF-7 (breast) cancer cells; assay: MTT growth inhibition assay, MCF-7; format: cell-based; conditions: 72 h, ± standard error, read-out: Growth Inhibition Concentration, GI50
Experimental: as §1, §2, §3, §4

[11] = system: BE2-C (neuroblastoma) cancer cells; assay: MTT growth inhibition assay, BE2-C; format: cell-based; conditions: 72 h, ± standard error, read-out: Growth Inhibition Concentration, GI50
Experimental: as §1, §2, §3, §4

calf thymus DNA (CT-DNA) = assay: CT-DNA binding by UV-vis absorption titration
Experimental: Both theoretical and experimental DNA binding of the synthesised organotin(IV) compounds with DNA were investigated. The interaction of organotin(IV) compounds with CT-DNA was elucidated via UV-visible absorption spectroscopy. […] The absorption spectra of diphenyltin(IV) compounds at a constant concentration (50 μM) in the absence and the presence of different concentrations of CT-DNA are shown in Figure 8. Upon increasing concentrations of CT-DNA, hypochromism and bathochromism occurred at around 350–377 nm indicating strong π–π stacking interactions between the aromatic chromophore of the organotin(IV) compounds and the nitrogeneous pair of the DNA strand [11, 70]. The same hypochromism and bathochromism shifts were also observed in other transitions. In order to compare the binding strength of the organotin(IV) compounds to CT-DNA, the intrinsic binding constants (Kb) were quantitatively determined and are presented in Table 3.
DNA binding experiments were carried out at 25°C. DNA concentration per nucleotide was determined using the molar absorption coefficient (6600 M^−1 cm^−1) at 260 nm. […] Absorption titration experiments were performed maintaining the concentration of the organotin(IV) compounds solutions at 50 µM and gradually increasing the concentration of CT-DNA. The organotin(IV) compounds were dissolved in DMSO and diluted with Tris-HCI buffer at room temperature (25 °C). The solutions were scanned over 230–600 nm. Absorbance values were recorded 10 min after the addition of DNA solution. The binding constant, Kb was determined using the equation: [DNA]/(εa−εf)=[DNA]/(εb−εf)+1/Kb(εb−εf) where [DNA] is the concentration of DNA in base pairs, εa corresponds to the apparent molar extinction coefficient Aabs/[M], εf corresponds to the extinction coefficient for the free organotin [M] and εb corresponds to the extinction coefficient for the fully bound organotin compound.

[12] = Homo sapiens, MCF7, MCF-7 cells
[13] = CT-DNA, UV-vis absorption titration

Row | GI50 (H460 (lung) cancer cells; Homo sapiens, NCI-H460, 72 h) | GI50 ([1]; Homo sapiens, U-87 MG) | GI50 (A431 (skin) cancer cells; Homo sapiens, A-431, 72 h) | GI50 ([4]; Pancreatic cancer cell) | GI50 [5] | GI50 ([6]; Homo sapiens, HT-29, 72 h) | GI50 ([7]; Homo sapiens) | GI50 ([9]; Homo sapiens, DU-145, 72 h) | melting point | GI50 [10, 12] | GI50 ([11]; Homo sapiens, BE(2)-C) | SMILES | GI50 ([2]; Homo sapiens) | GI50 ([3]; Homo sapiens, MCF-10A) | GI50 ([8]; Homo sapiens) | further results
1 | 3300 ± 210 nM | 3100 ± 260 nM | 3000 ± 150 nM | 4500 ± 250 nM | 2400 ± 260 nM | 2200 ± 33 nM | 3000 ± 60 nM | 3400 ± 300 nM | 173 to 174 °C | 2500 ± 120 nM | 2800 ± 200 nM | COc1cccc(/C=N/NC(=S)SCc2ccccc2)c1O [SBoVaH, S-Benzyl-β-N-(2-hydroxy-3-methoxybenzylmethylene) Dithiocarbazate] | 3100 ± 200 nM | 3000 ± 70 nM | 3700 ± 570 nM | 
2 | 5500 ± 730 nM | 3900 nM | 4200 ± 740 nM | 11000 ± 2300 nM | 3300 ± 870 nM | 8000 ± 3500 nM | 3100 ± 400 nM | 5400 ± 230 nM | 177 to 178 °C | 3500 nM | 3600 ± 270 nM | COc1cccc(/C=N/NC(=S)SCc2ccc(C)cc2)c1O [S4MoVaH, S-4-Methybenzyl-β-N-(2-hydroxy-3-methoxybenzylmethylene)dithiocarbazate] | 3600 ± 440 nM | 3500 ± 230 nM | 3200 ± 510 nM | 

Row | SMILES | GI50 (H460 (lung) cancer cells; Homo sapiens, NCI-H460, 72 h) | GI50 ([1]; Homo sapiens, U-87 MG) | GI50 (A431 (skin) cancer cells; Homo sapiens, A-431, 72 h) | GI50 ([4]; Pancreatic cancer cell) | GI50 [5] | GI50 ([6]; Homo sapiens, HT-29, 72 h) | GI50 ([7]; Homo sapiens) | GI50 ([9]; Homo sapiens, DU-145, 72 h) | melting point | GI50 [10, 12] | GI50 ([11]; Homo sapiens, BE(2)-C) | GI50 ([2]; Homo sapiens) | GI50 ([3]; Homo sapiens, MCF-10A) | GI50 ([8]; Homo sapiens) | further results
3 | COc1cccc2c1[O][Sn]([c]1ccccc1)([c]1ccccc1)[S]C(SCc1ccccc1)=NN=C2 [Ph2Sn(SBoVa), Diphenyltin(IV) [S-Benzyl-β-N-(2-hydroxy-3-methoxybenzylmethylene) dithiocarbazate]] |  |  |  |  | 740 ± 150 nM |  |  |  |  |  |  |  |  |  | GI50 (H460 (lung) cancer cells; 72 h): 2200 nM; GI50 [1]: 1100 ± 390 nM; GI50 (A431 (skin) cancer cells; 72 h): 1600 ± 70 nM; GI50 [2]: 320 ± 50 nM; GI50 [3]: 1300 ± 200 nM; GI50 [4]: 430 ± 40 nM; greater activity than respective Schiff base ([5]; GI50 comparison): 3 fold; GI50 ([6]; 72 h): 1200 ± 220 nM; GI50 [7]: 230 ± 30 nM; GI50 [8]: 580 ± 290 nM; Bathochromism Shift (nm) (calf thymus DNA (CT-DNA); [13]): 12 nm; Hypochromism, (%) (calf thymus DNA (CT-DNA); [13]): 70.72%; Gibbs Free Energy (calf thymus DNA (CT-DNA); interaction with CT-DNA): -8.29 kcal/mol; GI50 ([9]; 72 h): 1400 ± 330 nM; GI50 ([10]; MCF-7 cells): 900 ± 160 nM; GI50 [11]: 500 ± 50 nM
